Tests used:
[1] = target: Apoptosis regulator Bcl-2 (Homo sapiens, UniProt P10415); experiment: (§1) BCL-2 TR-FRET Assay: The following assay concentrations and times were used: 3 ng BCL-2, 5 μl of 1:100 anti-His Tb-labeled donor, 5 μl of 1:100 Dye-labeled acceptor, 5 μl of 1:40 BCL-2 Peptide Ligand, and 2 ul of test compound, with 60 min incubation time. The results of the assay were read using a Clariostar (BMG Labtech) plate reader with the following parameters: TR FRET, 340ex/620 and 665em; 60 μsec Delay; and 500 μsec integration.
Chain of Apoptosis regulator Bcl-2 (P10415 whole entry): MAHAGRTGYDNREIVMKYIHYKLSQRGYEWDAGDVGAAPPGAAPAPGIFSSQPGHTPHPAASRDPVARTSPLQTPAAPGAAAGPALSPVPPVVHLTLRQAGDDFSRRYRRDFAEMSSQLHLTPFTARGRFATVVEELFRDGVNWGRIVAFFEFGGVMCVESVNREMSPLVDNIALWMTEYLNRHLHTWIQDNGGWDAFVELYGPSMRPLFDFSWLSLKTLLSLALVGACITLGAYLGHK

Bcl-2-like protein 1 = Bcl-2-like protein 1 (Homo sapiens, UniProt Q07817); experiment: as §1, with “BCL-XL TR-FRET” for “BCL-2 TR-FRET”, “used: 10.5” for “used: 3”, “ng BCL-XL,” for “ng BCL-2,”, “of 1:80 BCL-XL” for “of 1:40 BCL-2”, “2 μl” for “2 ul”
Chain of Bcl-2-like protein 1 (Q07817 whole entry): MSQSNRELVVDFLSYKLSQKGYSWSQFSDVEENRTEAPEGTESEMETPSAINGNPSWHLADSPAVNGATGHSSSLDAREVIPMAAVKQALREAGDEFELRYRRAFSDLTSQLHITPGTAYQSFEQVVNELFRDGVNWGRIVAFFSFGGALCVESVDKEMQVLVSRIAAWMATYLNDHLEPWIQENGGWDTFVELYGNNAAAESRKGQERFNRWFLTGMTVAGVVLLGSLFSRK

Row | SMILES | IC50 [1] | IC50 (Bcl-2-like protein 1)
1 | O=C(c1cc(-c2cc3c(cc2C(=O)N2Cc4ccccc4C[C@H]2CN2CCOCC2)OCO3)n2c1CCCC2)N(Cc1ccccc1F)c1ccc(O)cc1 | < 0.005 µM | < 2 µM
2 | O=C(c1cc(-c2cc3c(cc2C(=O)N2Cc4ccccc4C[C@H]2CN2CCOCC2)OCO3)n2c1CCCC2)N(Cc1ccc(F)cc1)c1ccc(O)cc1 | – | > 4 µM
